Data published in US20210317134A1, “UBIQUITIN-SPECIFIC-PROCESSING PROTEASE 7 (USP7) MODULATORS AND USES THEREOF” (RAPT THERAPEUTICS, INC., priority 2019, published 2021).

These compounds were tested against USP7 (Homo sapiens, UniProt Q93009) (assay: USP7 inhibitory potency (Table 1)).
Chain of USP7 (Q93009 whole entry): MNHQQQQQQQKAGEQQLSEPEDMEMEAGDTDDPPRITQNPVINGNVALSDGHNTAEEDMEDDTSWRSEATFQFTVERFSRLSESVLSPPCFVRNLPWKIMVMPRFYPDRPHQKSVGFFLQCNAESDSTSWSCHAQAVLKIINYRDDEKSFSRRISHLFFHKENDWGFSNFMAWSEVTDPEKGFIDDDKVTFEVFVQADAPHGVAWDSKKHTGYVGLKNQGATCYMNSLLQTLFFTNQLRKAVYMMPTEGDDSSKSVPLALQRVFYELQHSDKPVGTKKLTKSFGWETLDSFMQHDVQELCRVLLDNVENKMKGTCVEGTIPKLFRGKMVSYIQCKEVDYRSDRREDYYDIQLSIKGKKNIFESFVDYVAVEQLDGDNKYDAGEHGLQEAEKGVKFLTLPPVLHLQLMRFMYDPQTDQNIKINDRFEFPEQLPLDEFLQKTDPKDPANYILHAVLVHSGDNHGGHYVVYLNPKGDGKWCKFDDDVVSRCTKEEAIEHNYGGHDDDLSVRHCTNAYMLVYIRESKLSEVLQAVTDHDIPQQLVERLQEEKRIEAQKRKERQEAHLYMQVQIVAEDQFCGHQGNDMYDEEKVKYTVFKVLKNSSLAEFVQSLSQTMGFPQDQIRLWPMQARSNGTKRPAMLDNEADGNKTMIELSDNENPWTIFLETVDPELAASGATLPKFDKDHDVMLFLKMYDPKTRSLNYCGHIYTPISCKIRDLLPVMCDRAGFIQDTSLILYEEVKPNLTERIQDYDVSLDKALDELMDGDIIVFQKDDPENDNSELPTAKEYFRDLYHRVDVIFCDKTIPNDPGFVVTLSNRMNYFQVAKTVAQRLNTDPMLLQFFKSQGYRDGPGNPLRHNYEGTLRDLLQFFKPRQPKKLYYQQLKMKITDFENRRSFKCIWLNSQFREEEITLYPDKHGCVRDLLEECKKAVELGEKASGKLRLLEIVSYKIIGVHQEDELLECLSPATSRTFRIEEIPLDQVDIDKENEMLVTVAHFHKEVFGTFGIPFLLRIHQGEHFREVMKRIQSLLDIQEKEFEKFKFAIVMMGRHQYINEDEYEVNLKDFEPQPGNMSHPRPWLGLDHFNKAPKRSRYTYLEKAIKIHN
Type: biochemical
An IC50 of under 1 µM was found for `O=C(C1Cc2cc(Cl)cc(-c3ccnc4c3CCC4)c2O1)N1CCNCC1` (centres unmarked) [(5-chloro-7-(6,7-dihydro-5H-cyclopenta[b]pyridin-4-yl)-2,3-dihydrobenzofuran-2-yl)(piperazin-1-yl)methanone] in this work.
An IC50 of 10 to 30 µM was found for `O=C(C1Cc2cc(Cl)cc(-c3ccnc4ccc(Cl)cc34)c2O1)N1CCNCC1` (centres unmarked) [(5-chloro-7-(6-chloroquinolin-4-yl)-2,3-dihydrobenzofuran-2-yl)(piperazin-1-yl)methanone] in this work.
An IC50 of 1 to 10 µM was found for `O=C(C1Cc2cc(Cl)cc(-c3ccnc4ccc(F)cc34)c2O1)N1CCNCC1` (centres unmarked) [(5-chloro-7-(6-fluoroquinolin-4-yl)-2,3-dihydrobenzofuran-2-yl)(piperazin-1-yl)methanone] in this work.
An IC50 of 10 to 30 µM was found for `COc1ccc2nccc(-c3cc(Cl)cc4c3OC(C(=O)N3CCNCC3)C4)c2c1` (centres unmarked) [(5-chloro-7-(6-methoxyquinolin-4-yl)-2,3-dihydrobenzofuran-2-yl)(piperazin-1-yl)methanone] in this work.
An IC50 of 1 to 10 µM was found for `O=C(C1Cc2cc(Cl)cc(-c3ccnc4cc(CO)ccc34)c2O1)N1CCNCC1` (centres unmarked) [(5-chloro-7-(7-(hydroxymethyl)quinolin-4-yl)-2,3-dihydrobenzofuran-2-yl)(piperazin-1-yl)methanone] in this work.
An IC50 of 1 to 10 µM was found for `O=C(C1Cc2cc(Cl)cc(-c3ccnc4cc(C(F)(F)F)ccc34)c2O1)N1CCNCC1` (centres unmarked) [(5-chloro-7-(7-(trifluoromethyl)quinolin-4-yl)-2,3-dihydrobenzofuran-2-yl)(piperazin-1-yl)methanone] in this work.
An IC50 of 1 to 10 µM was found for `COc1ccc2c(-c3cc(Cl)cc4c3OC(C(=O)N3CCNCC3)C4)ccnc2c1` (centres unmarked) [(5-chloro-7-(7-methoxyquinolin-4-yl)-2,3-dihydrobenzofuran-2-yl)(piperazin-1-yl)methanone] in this work.
An IC50 of 10 to 30 µM was found for `O=C(C1Cc2cc(Cl)cc(-c3ccnc4c(F)cccc34)c2O1)N1CCNCC1` (centres unmarked) [(5-chloro-7-(8-fluoroquinolin-4-yl)-2,3-dihydrobenzofuran-2-yl)(piperazin-1-yl)methanone] in this work.
An IC50 of 10 to 30 µM was found for `COc1cccc2c(-c3cc(Cl)cc4c3OC(C(=O)N3CCNCC3)C4)ccnc12` (centres unmarked) [(5-chloro-7-(8-methoxyquinolin-4-yl)-2,3-dihydrobenzofuran-2-yl)(piperazin-1-yl)methanone] in this work.
An IC50 of 1 to 10 µM was found for `O=C(C1Cc2cc(Cl)cc(-c3ccnc4ccccc34)c2O1)N1CCNCC1` (centres unmarked) [(5-chloro-7-(quinolin-4-yl)-2,3-dihydrobenzofuran-2-yl)(piperazin-1-yl)methanone] in this work.
An IC50 of 10 to 30 µM was found for `O=C(C1Cc2cc(Cl)cc(-c3ccnc4c3ccn4Cc3ccccc3)c2O1)N1CCNCC1` (centres unmarked) [(7-(1-Benzyl-1H-pyrrolo[2,3-b]pyridin-4-yl)-5-chloro-2,3-dihydrobenzofuran-2-yl)(piperazin-1-yl)methanone] in this work.
An IC50 of 1 to 10 µM was found for `O=C(C1Cc2cc(Cl)cc(-c3ccnc(NCc4ccccc4)c3)c2O1)N1CCNCC1` (centres unmarked) [(7-(2-(benzylamino)pyridin-4-yl)-5-chloro-2,3-dihydrobenzofuran-2-yl)(piperazin-1-yl)methanone] in this work.
An IC50 of 1 to 10 µM was found for `Nc1cc(-c2cc(Cl)cc3c2OC(C(=O)N2CCNCC2)C3)ccn1` (centres unmarked) [(7-(2-Aminopyridin-4-yl)-5-chloro-2,3-dihydrobenzofuran-2-yl)(piperazin-1-yl)methanone] in this work.
An IC50 of 1 to 10 µM was found for `Nc1nccc(-c2cc(Cl)cc3c2OC(C(=O)N2CCNCC2)C3)c1Cl` (centres unmarked) [(7-(2-amino-3-chloropyridin-4-yl)-5-chloro-2,3-dihydrobenzofuran-2-yl)(piperazin-1-yl)methanone] in this work.
An IC50 of 1 to 10 µM was found for `Cc1c(-c2cc(Cl)cc3c2OC(C(=O)N2CCNCC2)C3)ccnc1N` (centres unmarked) [(7-(2-amino-3-methylpyridin-4-yl)-5-chloro-2,3-dihydrobenzofuran-2-yl)(piperazin-1-yl)methanone] in this work.
An IC50 of 1 to 10 µM was found for `O=C(C1Cc2cc(Cl)cc(-c3ccnc4[nH]c(Cc5ccccc5)cc34)c2O1)N1CCNCC1` (centres unmarked) [(7-(2-benzyl-1H-pyrrolo[2,3-b]pyridin-4-yl)-5-chloro-2,3-dihydrobenzofuran-2-yl)(piperazin-1-yl)methanone] in this work.
An IC50 of 1 to 10 µM was found for `OCc1cc2nccc(-c3cc(Cl)cc4c3OC(c3nnn5c3CNCC5)C4)c2s1` (centres unmarked) [(7-(5-chloro-2-(4,5,6,7-tetrahydro-[1,2,3]triazolo[1,5-a]pyrazin-3-yl)-2,3-dihydrobenzofuran-7-yl)thieno[3,2-b]pyridin-2-yl)methanol] in this work.
An IC50 of 1 to 10 µM was found for `OCc1cc2nccc(-c3cc(Cl)cc4c3OC(c3onc5c3CNCC5)C4)n2n1` (centres unmarked) [(7-(5-chloro-2-(4,5,6,7-tetrahydroisoxazolo[4,3-c]pyridin-3-yl)-2,3-dihydrobenzofuran-7-yl)pyrazolo[1,5-a]pyrimidin-2-yl)methanol] in this work.
An IC50 of 1 to 10 µM was found for `CN(C)[C@H]1CCc2noc(C3Cc4cc(Cl)cc(-c5ccnc6cc(CO)sc56)c4O3)c2C1` (stereo partly drawn) [(7-(5-chloro-2-((S)-5-(dimethylamino)-4,5,6,7-tetrahydrobenzo[c]isoxazol-3-yl)-2,3-dihydrobenzofuran-7-yl)thieno[3,2-b]pyridin-2-yl)methanol] in this work.
An IC50 of under 1 µM was found for `CC1(c2onc3c2CNCC3)Cc2cc(Cl)cc(-c3ccnc4cc(CO)sc34)c2O1` (centres unmarked) [(7-(5-chloro-2-methyl-2-(4,5,6,7-tetrahydroisoxazolo[4,3-c]pyridin-3-yl)-2,3-dihydrobenzofuran-7-yl)thieno[3,2-b]pyridin-2-yl)methanol] in this work.
An IC50 of under 1 µM was found for `Cn1nc2c(c1[C@H]1Cc3cc(Cl)cc(-c4ccnc5cc(CO)sc45)c3O1)CC(N1CCC1)CC2` (stereo partly drawn) [(7-((2R)-2-(5-(azetidin-1-yl)-2-methyl-4,5,6,7-tetrahydro-2H-indazol-3-yl)-5-chloro-2,3-dihydrobenzofuran-7-yl)thieno[3,2-b]pyridin-2-yl)methanol] in this work.
An IC50 of under 1 µM was found for `CN(C)C1CCc2nn(C)c([C@H]3Cc4cc(Cl)cc(-c5ccnc6cc(CO)sc56)c4O3)c2C1` (stereo partly drawn) [(7-((2R)-5-chloro-2-(5-(dimethylamino)-2-methyl-4,5,6,7-tetrahydro-2H-indazol-3-yl)-2,3-dihydrobenzofuran-7-yl)thieno[3,2-b]pyridin-2-yl)methanol] in this work.
An IC50 of under 1 µM was found for `CN(C)C1CCc2noc([C@H]3Cc4cc(Cl)cc(-c5ccnc6cc(CO)sc56)c4O3)c2C1` (stereo partly drawn) [(7-((2R)-5-chloro-2-(5-(dimethylamino)-4,5,6,7-tetrahydrobenzo[c]isoxazol-3-yl)-2,3-dihydrobenzofuran-7-yl)thieno[3,2-b]pyridin-2-yl)methanol] in this work.
An IC50 of 10 to 30 µM was found for `OCC1Cc2nccc(-c3cc(Cl)cc4c3O[C@@H](c3onc5c3CNCC5)C4)c2O1` (stereo partly drawn) [(7-((R)-5-chloro-2-(4,5,6,7-tetrahydroisoxazolo[4,3-c]pyridin-3-yl)-2,3-dihydrobenzofuran-7-yl)-2,3-dihydrofuro[3,2-b]pyridin-2-yl)methanol] in this work.
An IC50 of under 1 µM was found for `CN(C)[C@@H]1CCc2noc([C@H]3Cc4cc(Cl)cc(-c5ccnc6cc(CO)sc56)c4O3)c2C1` [(7-((R)-5-chloro-2-((R)-5-(dimethylamino)-4,5,6,7-tetrahydrobenzo[c]isoxazol-3-yl)-2,3-dihydrobenzofuran-7-yl)thieno[3,2-b]pyridin-2-yl)methanol] in this work.
An IC50 of under 1 µM was found for `CCC(O)(CO)c1cc2nccc(-c3cc(Cl)cc4c3O[C@@H](C(=O)N3CCNCC3)C4)c2s1` (stereo partly drawn) [((2R)-5-chloro-7-(2-(1,2-dihydroxybutan-2-yl)thieno[3,2-b]pyridin-7-yl)-2,3-dihydrobenzofuran-2-yl)(piperazin-1-yl)methanone] in this work.
